What is called melting point is the temperature, or range, at which the solid turns liquid. Consider `CC(=O)O.N=C(N)c1ccc(CNC(=O)[C@H]2CCCN2C(=O)C(O)C2CCCCC2)cc1` (stereo partly shown) [Example 3, (D)-2-Cyclohexyl-2-hydroxyacetylproline p-amidinobenzylamide Acetate], for which the melting point is 216 to 218 °C.

(Values after patent US6900319B2, “Thrombin inhibitors” (Abbott GmbH & Co. KG, priority 1995, dated 2005).)
